Data reported in publication PMC11855827, “High-Throughput Screening of Five Compound Libraries for Anthelmintic Activity and Toxicity Leads to the Discovery of Two Flavonoid Compounds” (International Journal of Molecular Sciences, 2025).
Values joined by “and” are separate entries in the source; they are usually repeats but may differ in a detail not shown here. Identical values can stand only once. Like-named read-outs stand apart in the source and are kept apart here.

Tested on: C. elegans
[1] = Table S2, C. elegans SS assay, 110 μM, 0 h, averages of 4 data points
[2] = Table S2, C. elegans SS assay, 110 μM, 24 h, averages of 4 data points

Row | Compound | Percentage of motility inhibition 0 h [1] | Percentage of motility inhibition 24 h [2] | Percentage of motility inhibition 0 h (110 µM) [%] | Percentage of motility inhibition 24 h (110 µM) [%]
1 | Cn1c(=O)c2c(ncn2CC(O)CO)n(C)c1=O (centres unmarked) [Diphylline] | 66% | 31% | – | –
2 | CC(=O)O[C@@]12CO[C@@H]1C[C@H](O[C@@H]1OC[C@@H](O)[C@H](O)[C@H]1O)[C@@]1(C)C(=O)[C@H](O)C3=C(C)[C@@H](OC(=O)[C@H](O)[C@@H](NC(=O)c4ccccc4)c4ccccc4)C[C@@](O)([C@@H](OC(=O)c4ccccc4)[C@H]21)C3(C)C [10-Deacetyl-7-xylosyl paclitaxel] | 0% | 14% | – | –
3 | Mogroside II-A | 0% | 14% | – | –
4 | Cc1ccc(NC(=O)C(=O)NC2CC(C)(C)NC(C)(C)C2)cc1 [YYA‐021] | 44% | 39% | – | –
5 | COC(=O)[C@]1(C)CC[C@]2(C(=O)O[C@@H]3O[C@H](CO)[C@@H](O)[C@H](O)[C@H]3O)CC[C@]3(C)C(=CC[C@@H]4[C@@]5(C)C[C@H](O)[C@H](O[C@@H]6OC[C@@H](O[C@@H]7O[C@H](CO)[C@@H](O)[C@H](O)[C@H]7O)[C@H](O)[C@H]6O)[C@@](C)(CO)C5CC[C@]43C)[C@H]2C1 (some centres unmarked) [Esculentoside H] | 0% | 17% | – | –
6 | C[C@@H]1CC[C@]2(C(=O)O[C@@H]3O[C@H](CO)[C@@H](O)[C@H](O)[C@H]3O)CC[C@]3(C)C(=CC[C@@H]4[C@@]5(C)CC[C@H](O[C@@H]6OC[C@H](O)[C@H](O)[C@H]6O)C(C)(C)[C@@H]5CC[C@]43C)[C@@H]2[C@]1(C)O [Ziyuglycoside I] | 0% | 6% | – | –
7 | CC[C@H]1CN2CCc3cc(OC)c(OC)cc3[C@@H]2C[C@@H]1C[C@H]1NCCc2cc(O)c(OC)cc21.Cl.Cl [Cephaeline (dihydrochloride)] | 18% | 4% | – | –
8 | COc1ccc(-c2cc(=O)c3c(O)cc(O[C@@H]4O[C@H](CO)[C@@H](O)[C@H](O)[C@H]4O)cc3o2)cc1O [Diosmetin‐7‐O‐β‐D‐glucopyranoside] | 53% | 10% | – | –
9 | C=C(C(=O)O)[C@H]1CC[C@H](C)[C@@H]2CC(=O)C(C)=C2C1 [Rupestonic acid] | 0% | 8% | – | –
10 | NC(=O)c1ccc[n+]([C@@H]2O[C@H](CO)[C@@H](O)[C@H]2O)c1.[Cl-] [Nicotinamide riboside (chloride)] | 15% | 0% | – | –
11 | O=C1C[C@@H](c2ccccc2)Oc2cc(O[C@@H]3O[C@H](CO)[C@@H](O)[C@H](O)[C@H]3O)cc(O)c21 [Pinocembrin‐7‐O‐β‐D‐glucopyranoside] | 0% | 17% | – | –
12 | C=C(C)[C@@H]1CC[C@]2(C=O)CC[C@]3(C)[C@H](CC[C@@H]4[C@@]5(C)CC[C@H](O)C(C)(C)[C@@H]5CC[C@]43C)[C@@H]12 [Betulinaldehyde] | 7% and 0% | 3% and 9% | – | –
13 | COc1ccc(-c2cc(=O)c3c(O)cc(OC)cc3o2)cc1 [7,4'‐Di‐O‐methylapigenin] | 0% | 9% | – | –
14 | CC1=CC[C@@H](C(C)(C)O)CC1 [(-)-α-Terpineol] | 15% | 17% | – | –
15 | O=c1cc(-c2ccc(O)c(O)c2)oc2c(C3OC(CO)C(O)C(O)C3OC3OC(CO)C(O)C(O)C3O)c(O)cc(O)c12 (stereo not drawn) [2"‐O‐beta‐L‐galactopyranosylorientin] | 7% | 0% | – | –
16 | S=C=Nc1ccc(N=C=S)cc1 [p‐Phenylene diisothiocyanate] | 2% | 9% | – | –
17 | Hydroxysafflor yellow A | – | – | 36 | 12
18 | C[C@@H]1C[C@@H]([C@@H](O)C(C)(C)O)O[C@H]2C[C@@]3(C)C(=C12)C[C@H](O)[C@H]1[C@@]2(C)CCC(=O)C(C)(C)[C@@H]2CC[C@@]13C [Alisol F] | 0% | 11% | – | –
19 | C=C1[C@H](O)C[C@H]2[C@@H](/C=C(\C)C(=O)[C@@]3(O)C[C@H](C)[C@H](O)[C@@H]3[C@H]1O)C2(C)C [7beta-Hydroxylathyrol] | 6% | 14% | – | –
20 | CCN[C@@H]1C[C@H](N)[C@@H](O[C@H]2OC(CN)=CC[C@H]2N)[C@H](O)[C@H]1O[C@H]1OC[C@](C)(O)[C@H](NC)[C@H]1O.CCN[C@@H]1C[C@H](N)[C@@H](O[C@H]2OC(CN)=CC[C@H]2N)[C@H](O)[C@H]1O[C@H]1OC[C@](C)(O)[C@H](NC)[C@H]1O.O=S(=O)(O)O.O=S(=O)(O)O.O=S(=O)(O)O.O=S(=O)(O)O.O=S(=O)(O)O [Netilmicin (sulfate)] | 0% | 1% | – | –
21 | O.O.O=C([O-])CC(O)(CC(=O)[O-])C(=O)[O-].[Na+].[Na+].[Na+] [Sodium citrate (dihydrate)] | 32% | 2% | – | –

Row | Compound | Percentage of motility inhibition 0 h [1] | Percentage of motility inhibition 24 h [2] | Percentage of motility inhibition 0 h (110 µM) [%] | Percentage of motility inhibition 24 h (110 µM) [%]
22 | COc1cc(NC(C)CCCN)c2ncccc2c1.O=P(O)(O)O.O=P(O)(O)O (centres unmarked) [Primaquine (Diphosphate)] | 37% | 0% | – | –
23 | C=C1C2CCC3(C4C[C@H]5C6(CCC[C@@]5(C)CN(CC)C46)[C@H]3[C@H]2O)[C@@H]1O [Bullatine A] | 0% | 3% | – | –
24 | CC1CCC(C(C)C)C(O)C1 (single isomer, unassigned; (-)) [(-)-Menthol] | 7% and 6% | – | – | –
25 | CC(=O)NCCc1c[nH]c2ccc(O)cc12 [N‐Acetyl‐5‐hydroxytryptamine] | 0% | 0% | – | –
26 | CC1CCC(C(C)C)C(O)C1 (centres unmarked) [Menthol] | 3% | 17% | – | –
27 | CN[C@H](CC(C)C)C(=O)N[C@H]1C(=O)N[C@@H](CC(N)=O)C(=O)N[C@H]2C(=O)N[C@H]3C(=O)N[C@H](C(=O)N[C@H](C(=O)O)c4cc(O)cc(O)c4-c4cc3ccc4O)[C@H](O)c3ccc(c(Cl)c3)Oc3cc2cc(c3O[C@@H]2O[C@H](CO)[C@@H](O)[C@H](O)[C@H]2O[C@H]2C[C@](C)(N)[C@H](O)[C@H](C)O2)Oc2ccc(cc2Cl)[C@H]1O.Cl [Vancomycin (hydrochloride)] | 15% | 0% | – | –
28 | C=C1c2cccc(O)c2C(=O)C2=C(O)[C@]3(O)C(=O)C(C(N)=O)=C(O)[C@@H](N(C)C)[C@@H]3[C@@H](O)[C@H]12.Cl [Methacycline (hydrochloride)] | 17% | 20% | – | –
29 | C[C@H]1CC[C@@H]2N(C1)C[C@H]1[C@@H]3C[C@H]4[C@@H](CC(=O)[C@H]5C[C@@H](O)CC[C@@]54C)[C@@H]3CC[C@H]1[C@]2(C)O [Sipeimine] | 0% | 9% | – | –
30 | Cn1c[n+]([C@@H]2O[C@H](CO)[C@@H](O)[C@H]2O)c2nc(N)[nH]c(=O)c21 [7‐Methylguanosine] | 0% | 0% | – | –
31 | O=c1cc(-c2ccccc2)oc2cc(O[C@@H]3O[C@H](CO)[C@@H](O)[C@H](O)[C@H]3O)c(O)c(O)c12 [Oroxin A] | 0% | 1% | – | –
32 | CC(C)=CCC[C@@](C)(O)[C@H]1CC[C@]2(C)[C@@H]1[C@H](O)C[C@@H]1[C@@]3(C)CC[C@H](O)C(C)(C)[C@@H]3CC[C@]12C [(20R)-Protopanaxadiol] | 0% | 43% | – | –
33 | O=C([O-])C1=C(CSc2nnnn2CS(=O)(=O)[O-])CS[C@@H]2[C@H](NC(=O)[C@H](O)c3ccccc3)C(=O)N12.[Na+].[Na+] [Cefonicid (sodium)] | 0% | 2% | – | –
34 | CCN(CC)C(=O)N1CCN(C)CC1.O=C(O)CC(O)(CC(=O)O)C(=O)O [Diethylcarbamazine (citrate)] | 13% | 17% | – | –
35 | CC1(C)CCC2(C(=O)O)C(O)CC3(C)C(=CCC4C5(C)CC(O)C(O)C(C)(CO)C5CCC43C)C2C1 (centres unmarked) [Polygalacic acid] | 3% | 0% | – | –
36 | C=C(CC[C@@H](C(=O)O)[C@H]1[C@H](O)C[C@@]2(C)C3=CC[C@H]4C(C)(C)C(=O)CC[C@]4(C)C3=CC[C@]12C)C(C)C [Polyporenic acid C] | 30% | 12% | – | –
37 | C=C(C)[C@@H]1CC=C(C=O)CC1 [L-Perillaldehyde] | 22% | 25% | – | –
38 | CN1CCC=C(C(=O)O)C1 [Arecaidine] | 16% | 0% | – | –
39 | CC(=O)O[C@@H]1CC[C@@]2(C)[C@@H](CC[C@]3(C)[C@@H]2[C@H](O)C=C2[C@@H]4[C@@H](C)[C@H](C)CC[C@]4(C)CC[C@]23C)[C@@]1(C)C(=O)O | 24% | 23% | – | –
40 | CC1(C)CC[C@]2(C(=O)O[C@@H]3O[C@H](CO)[C@@H](O)[C@H](O)[C@H]3O)CC[C@]3(C)C(=CC[C@@H]4[C@@]5(C)CC[C@H](O)C(C)(C)[C@@H]5CC[C@]43C)[C@@H]2C1 [Oleanolic acid 28-O-β-D-glucopyranoside] | 33% | 34% | – | –
41 | Cc1ccc(Nc2cc(-c3cccc(N4C(=O)c5ccccc5C4=O)c3)ncn2)cc1NS(C)(=O)=O [CDK9‐IN‐1] | 54% | 3% | – | –
42 | CO[C@@H]1[C@@H](OC(N)=O)[C@@H](O)[C@H](Oc2ccc3c([O-])c(NC(=O)c4ccc(O)c(CC=C(C)C)c4)c(=O)oc3c2C)OC1(C)C.[Na+] [Novobiocin (sodium)] | 6% | 6% | – | –
